Source: patent US20250295083A1, “METHODS FOR PRODUCING AN ORGANOGENIC CALLUS AND COMPOSITIONS, SYSTEMS, AND METHODS RELATING THERETO” (Pairwise Plants Services, Inc., priority 2022, published 2025)
Entries after “also recorded” stand apart in the source; their conditions may differ.

Tested on: cross sections of the stems (including nodes) of the lateral shoots, cherry variety Sweetheart
Assay: Callus induction from cut stem cross sections (including nodes) cultured on media
Type: cell-based, sweet cherry (Prunus avium)
Details: 24° C., 8 weeks in the dark
Procedure: The cherry variety, Sweetheart, was grown in a greenhouse and stem tissue was collected. The stem tissue was grown in vitro on propagation media (Table 1) at 25° C., 40 μM light with a 16 hour photoperiod until lateral shoots began to emerge. The stem tissue with lateral shoots were grown on the propagation media for no more than 10 days and were collected by day 10.
Leaves and petioles were removed from the lateral shoots and cross sections of the stems (including nodes) of the lateral shoots were cut. The cross sections of the stems were about 0.5 mm wide. For the purpose of inducing callus formation, the cut material was then placed onto either Garin media as described in Garin, E., et al. (1997). Plant cell, tissue and organ culture, 48(2), 83-91, media comprising 2 mg TDZ, media comprising 5 mg TDZ, or media comprising 10 mg TDZ and cultured at 24° C. for 8 weeks in the dark. The plant material was moved to fresh media approximately every three weeks. If endophyte growth was noted as the experiment was progressing, then the media was supplemented with 200 mg/L cefoxatime. Approximately 149 nodes were processed and cultured on the media containing 5 mg TDZ. Approximately 149 nodes were processed and cultured on the media containing 10 mg TDZ. Approximately 324 nodes were processed and cultured on the Garin media. The lateral shoots were cultured for a total of 8 weeks on the medias described above and then observed for the formation of callus.

`O=C(Nc1ccccc1)Nc1cnns1` [TDZ, thidiazuron] was tested, and the “Observations (callus formation)” value (media comprising 2 mg TDZ) was “Small amount of callus formed”, the “Observations (callus formation)” value (media comprising 5 mg TDZ) was “Moderate amount of callus but much” and the “Observations (callus formation)” value (media comprising 10 mg TDZ (10 mg/L)) was “many more of the tissues developing callus; also recorded: along with considerably more mass being”. The tissues forming callus (media comprising 10 mg TDZ) was “Nearly 100% of tissues forming callus”.
